Test results taken from patent publication US20090123376A1, “THERAPEUTIC AGENTS WITH DECREASED TOXICITY” (priority 2004, published 2009).
Non-standard residues stand in square brackets, D forms with d. Residues, ends and D or L forms follow the SMILES beside them. *: point of attachment. Dolaproine = CO[C@@H]([C@@H]1CCCN1)[C@@H](C)C(=O)O; Dil = CC[C@H](C)[C@H](NC)[C@@H](CC(=O)O)OC; X1 = C[C@@H](N*)[C@@H](O)c1ccccc1; NMeV = CN[C@H](C(=O)O)C(C)C

Tests used:
[1] = Toxicity of IgG-MMAE, F(ab')2-MMAE conjugates and free MMAE in rats (Example 3); type: in vivo, Female Spraque-Dawley (SD) rats
Protocol: Female Spraque-Dawley (SD) rats weighing between 75-80 grams (Charles River Laboratories, Hollister, Calif.) were used in the following studies to compare the toxicity of free MMAE, Fab-MMAE and F(ab′)2-MMAE conjugates.
The body surface area was calculated as follows: [{(body weight in grams to 0.667 power)×11.8}/10000]. (Guidance for Industry and Reviewers. Estimating the Safety Starting Dose in Clinical Trials for Therapeutics in Adult Healthy Volunteers. U.S. Department of Health and Human Services Food and Drug Administration, Center for Drug Evaluation and Research (CDER), Center for Biologics Evaluation and research (CBER), December 2002).
General clinical observations were performed daily. Morbidity and mortality checks were performed twice daily (AM and PM). The body weights of the animals were measured pre-dose on Study Day 1 and daily thereafter. Whole blood was collected into EDTA containing tubes for hematology parameters (e.g., mean serum AST levels, ALT levels, GGT levels and billirubin levels) and differential cell counts (e.g., mean white blood cell counts and platelet counts). Whole blood was collected into serum separator tubes for clinical chemistry parameters. Blood samples were collected pre-dose on Study Day-4, on Study Day 3 and on Day 5 at necropsy. Whole blood was also collected into lithium heparin containing tubes at necropsy and the plasma was frozen at −70° C. for later analysis. The following tissues were collected at necropsy: liver, kidneys, heart, thymus, spleen, brain, sternum and sections of the GI tract, including stomach, large and small intestine. At necropsy, only spleen and thymus were weighed. All statistical analyses were done on Day 5 body weights using a One Way ANOVA, Tukey's test, (SigmaStat 2.03 Software).

[2] = system: MMTV-HER2 transgenic mammary tumors (Fo5); details: established MMTV-HER2 transgenic mammary tumors (Fo5)
Protocol: Log Cell Kill analyses based on tumor doubling times were conducted. The Log Cell Kill analysis uses a mathematical computation of tumor growth delay based on the time it takes for tumors to double in size after treatment begins compared to controls.

[3] = 2105 μg MMAE/m2, day 3 (Herceptin-vc-MMAE days 3 and 5)
[4] = 2105 μg MMAE/m2 single iv bolus

In the case of `CC[C@H](C)[C@@H]([C@@H](CC(=O)N1CCC[C@H]1[C@H](OC)[C@@H](C)C(=O)N[C@H](C)[C@@H](O)c1ccccc1)OC)N(C)C(=O)[C@@H](NC(=O)[C@@H](NC)C(C)C)C(C)C` [free MMAE, monomethylauristatin] (H-[NMeV]V[Dil][Dolaproine]-X1), the “morphologic changes (histology)” value ([1]; 2105 μg MMAE/m2) is reported as “most severe”, the “liver associated serum enzymes / liver function tests” value [1, 3] is reported as “highest elevations in liver associated serum enzymes ALT, AST and GGT” and the “platelet and white blood cell counts” value [1, 3] is reported as “lowest platelet and white blood cell counts”. The “body weight lost by Day 3 compared with Day 1 weights” value [1, 4] was 12 grams, the “weight loss, comparison between groups” value [1, 4] was “comparable weight loss” and the clinical observations ([1]; 2105 μg MMAE/m2 single iv bolus, Study Day 3) was “moribund”.

In the case of Herceptin®, the “response of the Fo5 tumor line” value [2] is reported as “non-responsive”.
